According to patent publication US20240115541A1, “METHOD FOR TREATING CEREBRAL APOPLEXY AND HYPERBILIRUBINEMIA BY COMPOUND FOR INHIBITING COMBINATION OF BILIRUBIN AND TRPM2 CHANNEL” (SHANGHAI SIXTH PEOPLE'S HOSPITAL, priority 2022, published 2024):
Each block holds one compound with its values, some of them ahead of it.

Columns and labels:
[1] = tested on: cortical neurons in adult Trpm2+/+ brain slices; conditions: mouse, 1 h
[2] = molecular target: T1, human TRPM2 channel (hTRPM2) (Homo sapiens, UniProt O94759); assay: Single-channel (outside-out) patch-clamp recording, HEK-hTRPM2 cells; type: cell-based; conditions: FFA applied after bilirubin
T1 construct: expressed in transfected cells; host or cells: HEK293 cells with tetracycline-inducible expression
Experimental: 1. Extracellular solution (in mM): 145 NaCl, 5.6 KCl, 2 MgCl2, 1.2 CaCl2, 10 HEPES, 10 glucose and pH adjusted to 7.4 by NaOH (290-320 mOsm).
2. Pipette solution contains (in mM): 147 NaCl, 1 MgCl2, 1 EGTA and 10 HEPES with pH 7.4 and osmolality 290-320 mOsm.
(§1) 3. Cell culture and transfection: Human embryonic kidney 293 (HEK293) cells with tetracycline-inducible expression of human TRPM2 channel (hTRPM2) were cultured in a mixed medium containing DMEM/F-12 and 10% fetal bovine serum as well as blasticidin (50 μg/ml) and zeocin (0.4 mg/ml). The expression of hTRPM2 was induced by substituting […] (1 μg/ml) 24-48 hours before use. TRPM2 channel mutants were transiently expressed in HEK293T cells by transfection with using Lipofectamine 3000. […]
(§2) 4. Whole-cell and ingle-channel patch-clamp recording: the coverslips were placed in a culture dish (35×35 mm, Sorfa) containing HEPES based extracellular solution (ECS) and recorded by patch-clamp technique. […] Each coverslip was recorded only once with different drug exposures. […] The excised patches were voltage-clamped from −80 mV to +80 mV (in 20 mV increasement) to generate the current-voltage (I-V) relationship of single channel currents from which their main conductance was calculated from the slope by linear regression of the mean current amplitude at different potentials.

[3] = molecular target: T2, K928A/D1069A double mutant TRPM2 channel (Homo sapiens, UniProt O94759, D1069A/K928A); assay: Whole-cell patch-clamp recording, K928A/D1069A double mutant in HEK293T cells; type: cell-based; conditions: intracellular ADPR 500 μM
T2 construct: expressed in transfected cells; host or cells: HEK293T cells, Lipofectamine 3000, GFP cDNA co-transfected as a separate marker
Experimental: as §1, with “3000. Briefly, HEK293T cells were transiently transfected with cDNAs encoding the mutant hTRPM2 channel. The cDNA for GFP was co-transfected as a marker for identification of the transfected cells for electrophysiological experiments 16-24 hours after transfection.” for “3000.”
as §2, with “potentials. […]” for “potentials.”

T2 sequence (O94759 whole entry K928A/D1069A): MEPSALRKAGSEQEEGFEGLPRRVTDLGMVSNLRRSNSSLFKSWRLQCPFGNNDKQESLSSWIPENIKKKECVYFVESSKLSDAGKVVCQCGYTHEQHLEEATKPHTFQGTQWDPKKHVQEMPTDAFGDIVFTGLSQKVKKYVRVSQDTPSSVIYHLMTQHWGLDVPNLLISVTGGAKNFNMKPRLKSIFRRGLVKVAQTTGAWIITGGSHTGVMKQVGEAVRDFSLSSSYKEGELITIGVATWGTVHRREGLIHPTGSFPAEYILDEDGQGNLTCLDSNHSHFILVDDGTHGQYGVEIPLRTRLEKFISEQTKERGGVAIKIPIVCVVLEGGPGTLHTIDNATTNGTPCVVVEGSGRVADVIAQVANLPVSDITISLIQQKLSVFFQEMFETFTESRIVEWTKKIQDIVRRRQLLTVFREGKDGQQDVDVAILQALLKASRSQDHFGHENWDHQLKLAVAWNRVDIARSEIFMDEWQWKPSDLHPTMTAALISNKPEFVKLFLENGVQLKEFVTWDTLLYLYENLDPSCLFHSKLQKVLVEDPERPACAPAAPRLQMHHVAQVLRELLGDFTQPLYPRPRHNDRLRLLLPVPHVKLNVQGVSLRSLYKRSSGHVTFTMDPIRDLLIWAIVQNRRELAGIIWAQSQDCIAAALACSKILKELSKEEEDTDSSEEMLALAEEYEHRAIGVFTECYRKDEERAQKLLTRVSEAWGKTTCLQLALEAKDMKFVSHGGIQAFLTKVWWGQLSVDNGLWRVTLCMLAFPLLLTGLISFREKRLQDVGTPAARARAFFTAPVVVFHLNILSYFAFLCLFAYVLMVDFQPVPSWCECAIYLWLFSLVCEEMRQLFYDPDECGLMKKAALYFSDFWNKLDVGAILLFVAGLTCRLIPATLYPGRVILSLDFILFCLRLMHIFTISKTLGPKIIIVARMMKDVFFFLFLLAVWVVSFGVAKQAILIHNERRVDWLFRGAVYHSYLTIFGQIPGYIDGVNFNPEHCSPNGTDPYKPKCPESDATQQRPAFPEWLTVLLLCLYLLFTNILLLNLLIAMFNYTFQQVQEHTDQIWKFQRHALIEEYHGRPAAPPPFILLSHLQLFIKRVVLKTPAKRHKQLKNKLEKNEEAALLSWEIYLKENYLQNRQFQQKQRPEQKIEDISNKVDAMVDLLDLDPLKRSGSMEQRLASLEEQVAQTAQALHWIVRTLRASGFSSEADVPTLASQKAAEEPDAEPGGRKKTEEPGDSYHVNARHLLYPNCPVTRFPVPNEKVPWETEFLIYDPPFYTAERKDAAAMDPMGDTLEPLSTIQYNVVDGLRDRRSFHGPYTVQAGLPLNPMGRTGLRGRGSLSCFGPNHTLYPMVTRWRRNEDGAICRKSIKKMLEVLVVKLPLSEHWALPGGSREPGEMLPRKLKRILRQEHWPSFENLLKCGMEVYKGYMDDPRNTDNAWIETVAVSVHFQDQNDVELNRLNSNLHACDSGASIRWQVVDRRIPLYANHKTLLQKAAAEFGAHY
T1 sequence (O94759 whole entry): as the sequence (O94759 whole entry K928A/D1069A) above, with A928K, A1069D counted along it

SMILES: C=CC1=C(C)/C(=C/c2[nH]c(Cc3[nH]c(/C=C4\NC(=O)C(C)=C4C=C)c(C)c3CCC(=O)O)c(CCC(=O)O)c2C)NC1=O [bilirubin]
mortality of cortical neurons [1]: 60.84±2.13%

effect on bilirubin-increased opening probability (Po) [2]: reversed
SMILES: O=C(O)c1ccccc1Nc1cccc(C(F)(F)F)c1 [FFA, flufenamic acid]

activation of K928A/D1069A double mutant currents [3]: perfectly retained the agonist capacity
SMILES: Nc1ncnc2c1ncn2[C@@H]1O[C@H](COP(=O)(O)OP(=O)(O)OC[C@H]2OC(O)[C@H](O)[C@@H]2O)[C@@H](O)[C@H]1O (stereo partly drawn) [ADPR, ADP-ribose]
